The structures appear in SMILES notation. Structures can show the parent of a compound that is named as a salt. Where two headings read alike, the source gives them in different places.

Assay [1] has as its target T1, SARS-CoV-2 PLpro (nsp3 1564–1878) (Severe acute respiratory syndrome coronavirus 2, UniProt P0DTD1). The experiment in a line: biochemical. Details: FRET-quenched peptide (Pro3) cleavage by PLpro, 10 min pre-incubation, slope over 20 min, normalised to no-compound control. As to conditions: low concentration screen, read-out: % of control remaining.
Assay [2] addresses T1, SARS-CoV-2 PLpro (nsp3 1564–1878). Nature of the assay: biochemical. To be noted: high concentration screen, read-out: % of control remaining. Details: FRET-quenched peptide (Pro3) cleavage by PLpro, 10 min pre-incubation, slope over 20 min, normalised to no-compound control.

With `CC(=O)Oc1cc2c(s1)CCN(C(C(=O)C1CC1)c1ccccc1F)C2` (centres unmarked) [Prasugrel], the remaining activity at 1.25 µM in assay [1] (Well no.=6562) turned out to be 97%. Besides, the remaining activity at 3.75 µM in assay [2] (Well no.=6562) stood at 102%.

As for `O=C1C=CC[C@@H]2[C@H]3CCCN4CCC[C@@H](CN12)[C@@H]34` [Sophocarpine], in assay [1] (Well no.=4870), the remaining activity at 1.25 µM is 99.5%. The remaining activity at 3.75 µM in assay [2] (Well no.=4870) was found to be 101%.

As to `Cc1ccc(S(=O)(=O)n2c(N)nc3ccccc32)cc1` [ML130], the remaining activity at 1.25 µM in assay [1] (Well no.=4829) worked out at 101%. Further, the remaining activity at 3.75 µM in assay [2] (Well no.=4829) turned out to be 101%.

With `CCCCc1nc(C)c(CC(=S)N(C)C)c(=O)n1Cc1ccc(-c2ccccc2-c2nnn[nH]2)cc1` [Fimasartan], the remaining activity at 1.25 µM in assay [1] (Well no.=6183) was 107%. For the same compound, the remaining activity at 3.75 µM in assay [2] (Well no.=6183) came to 103%.

Consider `O=c1cc(N2CCNCC2)oc2c(-c3ccccc3)cccc12` [LY 303511], for which the remaining activity at 1.25 µM in assay [1] (Well no.=2467) is 102%. In addition, the remaining activity at 3.75 µM in assay [2] (Well no.=2467) worked out at 106%.

With `O=C(/C=C/c1ccc(O)c(O)c1)OCCc1ccccc1` [Caffeic acid phenethyl ester], the remaining activity at 1.25 µM in assay [1] (Well no.=140) came to 103%. Further, the remaining activity at 3.75 µM in assay [2] (Well no.=140) was found to be 104%.

On to `NC[C@H](CC(=O)O)c1ccc(Cl)cc1` [(R)-baclofen], for which, in assay [1] (Well no.=5315), the remaining activity at 1.25 µM amounted to 96.9%. In addition, the remaining activity at 3.75 µM in assay [2] (Well no.=5315) is 93.5%.

On to `C[C@H](Nc1ccc(Cl)cc1)C(=O)O` (racemic), for which the remaining activity at 1.25 µM in assay [1] (Well no.=230) came out at 95.2%. Moreover, the remaining activity at 3.75 µM in assay [2] (Well no.=230) amounted to 97.1%.

With `CNCC(=O)c1ccc(O)c(O)c1` [Adrenalone (hydrochloride)], in assay [1] (Well no.=7433), the remaining activity at 1.25 µM was 103%. In assay [2] (Well no.=7433), the remaining activity at 3.75 µM was determined as 103%.

`CC1=C(/C=C/C(C)=C/C=C/C(C)=C/C(=O)Nc2ccc(O)cc2)C(C)(C)CCC1` [Fenretinide]: in assay [1] (Well no.=1577), the remaining activity at 1.25 µM was determined as 92.1%. For the same compound, the remaining activity at 3.75 µM in assay [2] (Well no.=1577) is 92.2%.

On to `CNC(=O)c1cc(Oc2ccc(NC(=O)Nc3ccc(Cl)c(C(F)(F)F)c3)cc2)ccn1` [Sorafenib], for which the remaining activity at 1.25 µM in assay [1] (Well no.=2941) was 101%. In addition, in assay [2] (Well no.=2941), the remaining activity at 3.75 µM worked out at 97.8%.

As for `COC(=O)c1c(C)[nH]c(C)c1C(=O)c1ccccc1Cc1ccccc1` [FPL 64176], the remaining activity at 1.25 µM in assay [1] (Well no.=713) was found to be 97.6%. Also, the remaining activity at 3.75 µM in assay [2] (Well no.=713) came to 94.1%.

As for `CC(=O)Oc1cc2c(s1)CCN(C(C(=O)C1CC1)c1ccccc1F)C2` (centres unmarked) [Prasugrel (Effient)], the remaining activity at 1.25 µM in assay [1] (Well no.=4765) worked out at 103%. Besides, the remaining activity at 3.75 µM in assay [2] (Well no.=4765) came to 104%.

Take `COC(=O)C1=C(C)NC(C)=C([N+](=O)[O-])C1c1ccccc1C(F)(F)F` (racemic): the remaining activity at 1.25 µM in assay [1] (Well no.=133) stood at 108%. In addition, in assay [2] (Well no.=133), the remaining activity at 3.75 µM was determined as 105%.

For the compound `O=C(O)CCNC(=O)c1ccc(/N=N/c2ccc(O)c(C(=O)O)c2)cc1` [Balsalazide], the remaining activity at 1.25 µM in assay [1] (Well no.=7362) was 96.6%. The remaining activity at 3.75 µM in assay [2] (Well no.=7362) worked out at 92.1%.

`O=C(O[C@H]1C[N+]2(CCCOc3ccccc3)CCC1CC2)C(O)(c1cccs1)c1cccs1` [Aclidinium Bromide]: the remaining activity at 1.25 µM in assay [1] (Well no.=5358) worked out at 100%. Besides, the remaining activity at 3.75 µM in assay [2] (Well no.=5358) was determined as 97.4%.

For the compound `O=c1[nH]c2cc(C(F)(F)F)ccc2n1-c1cc(C(F)(F)F)ccc1O` [NS-1619], the remaining activity at 1.25 µM in assay [1] (Well no.=846) turned out to be 104%. Further, the remaining activity at 3.75 µM in assay [2] (Well no.=846) was 102%.

For `Cc1ccc(Sc2ccccc2N2CCNCC2)c(C)c1` [Vortioxetine], the remaining activity at 1.25 µM in assay [1] (Well no.=6269) came to 102%. In addition, in assay [2] (Well no.=6269), the remaining activity at 3.75 µM stood at 102%.

`COc1cc2c(cc1CC=C(C)C)C(=O)C[C@@H](c1ccc(O)cc1)O2` [Bavachinin A]: the remaining activity at 1.25 µM in assay [1] (Well no.=3243) stood at 100%. For the same compound, the remaining activity at 3.75 µM in assay [2] (Well no.=3243) amounted to 99%.

As to `O=c1cc(CO)occ1O` [5-hydroxy-2-(hydroxymethyl)-4H-pyran-4-one], the remaining activity at 1.25 µM in assay [1] (Well no.=5437) turned out to be 109%. The remaining activity at 3.75 µM in assay [2] (Well no.=5437) turned out to be 113%.

As for `CN(C)CCC=C1c2ccccc2COc2ccccc21` [Doxepin hydrochloride], the remaining activity at 1.25 µM in assay [1] (Well no.=451) is 105%. Besides, the remaining activity at 3.75 µM in assay [2] (Well no.=451) is 102%.

As to `CCN(C)C(=O)Oc1cccc([C@H](C)N(C)C)c1` [(2R,3R)-2,3-dihydroxybutanedioic acid compound with 3-[(1S)-1-(dimethylamino)ethyl]phenyl ethyl(methyl)carbamate (1:1)], the remaining activity at 1.25 µM in assay [1] (Well no.=5811) worked out at 96.9%. In assay [2] (Well no.=5811), the remaining activity at 3.75 µM was 98%.

Regarding `CCCCCCCC/C=C\C/C=C\C/C=C\CCCC(=O)NCCO` [Mead ethanolamide], the remaining activity at 1.25 µM in assay [1] (Well no.=4324) worked out at 99.8%. Moreover, the remaining activity at 3.75 µM in assay [2] (Well no.=4324) came out at 95.4%.

Regarding `NC(N)=NCCNS(=O)(=O)c1cccc2cnccc12` [HA-1004 hydrochloride], the remaining activity at 1.25 µM in assay [1] (Well no.=522) is 101%. Further, the remaining activity at 3.75 µM in assay [2] (Well no.=522) was 99.3%.

Turning to `NCC#Cc1ccccc1` [3-Phenylpropargylamine hydrochloride], in assay [1] (Well no.=1405), the remaining activity at 1.25 µM amounted to 103%. Moreover, the remaining activity at 3.75 µM in assay [2] (Well no.=1405) came out at 101%.

Turning to `COc1ccc2cc([C@H](C)C(=O)O)ccc2c1` [Naproxen], the remaining activity at 1.25 µM in assay [1] (Well no.=1869) was 90.4%. Besides, the remaining activity at 3.75 µM in assay [2] (Well no.=1869) worked out at 87.1%.

As for `C=C1/C(=C\C=C2/CCC[C@]3(C)[C@@H]([C@H](C)/C=C/[C@@H](O)C4CC4)CC[C@@H]23)C[C@@H](O)C[C@@H]1O` [Calcipotriene], the remaining activity at 1.25 µM in assay [1] (Well no.=1760) worked out at 96.1%. The remaining activity at 3.75 µM in assay [2] (Well no.=1760) was determined as 96.3%.

Take `COc1ccc(-c2ccc3c(N4CCOC[C@@H]4C)nc(N4CCOC[C@@H]4C)nc3n2)cc1CO` [AZD8055]: in assay [1] (Well no.=5293), the remaining activity at 1.25 µM is 99.1%. Further, the remaining activity at 3.75 µM in assay [2] (Well no.=5293) worked out at 97.4%.

With `CC(C)(C)c1ccc(S(=O)(=O)NCc2ccc(C(=O)Nc3cccnc3)cc2)cc1` [STF-31], the remaining activity at 1.25 µM in assay [1] (Well no.=6059) is 94.9%. Moreover, the remaining activity at 3.75 µM in assay [2] (Well no.=6059) turned out to be 94.5%.

In the case of `CCCN(CCc1cccs1)[C@H]1CCc2c(O)cccc2C1` [Rotigotine], the remaining activity at 1.25 µM in assay [1] (Well no.=8349) is 92.3%. Besides, the remaining activity at 3.75 µM in assay [2] (Well no.=8349) came to 88.8%.

`Cc1ccc(NC2=CC(=O)c3sc(C)nc3C2=O)cc1` [Ryuvidine - 2-Methyl-5-[(4-methylphenyl)amino]-4,7-benzothiazoledione]: the remaining activity at 1.25 µM in assay [1] (Well no.=2584) is 86.3%. Moreover, the remaining activity at 3.75 µM in assay [2] (Well no.=2584) stood at 85%.
